Results as given in patent US7582645B2, “Pyrimidine derivatives for treatment of hyperproliferative disorders” (Bayer Pharmaceuticals Corporation, priority 2003, dated 2009).
Counter-ions that a name gives are not always drawn.

Test system: HCT116 cells
Experiment: HCT116 cytotoxic activity assay (Alamar Blue, 72 h)
Assay type: cell-based
Conditions: Homo sapiens, HCT-116, 72 h compound exposure
Method: Representative compounds of this invention were tested for cytotoxicity using the above-described assay procedure with the following results: […]

[1] = greater than 500 nM but less than or equal to 2 μM

Row | Compound | IC50 [1] [nM] | IC50 (less than or equal to 500 nM) [nM] | also measured
1 | Nc1nc(Nc2ccc(Oc3cncnc3)cc2)cc(-c2ccccc2)n1 [Example 61, 6-phenyl-N4*-[4-(pyrimidin-5-yloxy)phenyl] pyrimidine-2,4-diamine] | 500 to 2000 | – | –
2 | Nc1ccc(Oc2ccc(Nc3cc(-c4ccccc4)nc(N)n3)cc2)cc1 [Example 62, N^4-[4-(4-aminophenoxy)phenyl]-6-phenylpyrimidine-2,4-diamine] | – | ≤ 500 | –
3 | Nc1nc(Nc2ccc(Oc3cc(Br)ccn3)cc2)cc(-c2ccccc2)n1 [Example 63, N4*-{4-[(4-bromopyridin-2-yl)oxy]phenyl}-6-phenylpyrimidine-2,4-diamine] | – | ≤ 500 | –
4 | Nc1nc(Nc2ccc(Oc3ccnc(F)c3)cc2)cc(-c2ccccc2)n1 [Example 64, N4*-{4-[(2-fluoropyridin-4-yl)oxy]phenyl}-6-phenylpyrimidine-2,4-diamine trifluoroacetate] | – | ≤ 500 | –
5 | Nc1nc(Nc2ccc(Oc3ccnc(O)c3)cc2)cc(-c2ccccc2)n1 [Example 65, 4-{4-[(2-amino-6-phenylpyrimidin-4-yl)amino]phenoxy}pyridin-2-ol] | 500 to 2000 | – | –
6 | Nc1nc(Nc2ccc(Oc3ccnc(Cl)c3)cc2F)cc(-c2ccccc2)n1 [Example 66, N4*-{4-[(2-chloropyridin-4-yl)oxy]-2-fluorophenyl}-6-phenylpyrimidine-2,4-diamine] | – | ≤ 500 | –
7 | Nc1nc(Nc2ccc(Oc3ccnc(C(F)(F)F)c3)cc2F)cc(-c2ccccc2)n1 [Example 67, N4*-(2-fluoro-4-{[2-(trifluoromethyl)pyridin-4-yl]oxy}phenyl)-6-phenylpyrimidine-2,4-diamine] | – | ≤ 500 | –
8 | N#Cc1ccc(Oc2ccc(Nc3cc(-c4ccccc4)nc(N)n3)cc2)cc1 [Example 68, 4-{4-[(2-amino-6-phenylpyrimidin-4-yl)amino]phenoxy} benzonitrile] | 500 to 2000 | – | –
9 | NC(=O)c1cc(Oc2ccc(Nc3cc(-c4ccccc4)nc(N)n3)cc2)ccn1 [Example 69, 4-{4-[(2-amino-6-phenylpyrimidin-4-yl)amino]phenoxy} pyridine-2-carboxamide] | – | ≤ 500 | –
10 | CNC(=O)c1cc(Oc2ccc(Nc3cc(-c4ccccc4)nc(N)n3)cc2)ccn1 [Example 70, 4-{4-[(2-amino-6-phenylpyrimidin-4-yl)amino]phenoxy}-N-methylpyridine-2-carboxamide] | 500 to 2000 | – | –
11 | CNC(=O)c1cc(Oc2ccc(Nc3cc(-c4ccc(F)cc4)nc(N)n3)cc2)ccn1 [Example 71, 4-(4-{[2-amino-6-(4-fluorophenyl)pyrimidin-4-yl]amino}phenoxy)-N-methylpyridine-2-carboxamide] | – | – | IC50 (greater than 2 μM): > 2000 nM
12 | CNC(=O)c1cc(Oc2cccc(Nc3cc(-c4ccc(F)cc4)nc(N)n3)c2)ccn1 [Example 72, 4-(3-{[2-amino-6-(4-fluorophenyl)pyrimidin-4-yl]amino}phenoxy)-N-methylpyridine-2-carboxamide] | – | – | IC50 (greater than 2 μM): > 2000 nM
13 | NC(=O)c1cc(Oc2ccc(Nc3cc(-c4ccc(F)cc4)nc(N)n3)cc2)ccn1 [Example 73, 4-(4-{[2-amino-6-(4-fluorophenyl)pyrimidin-4-yl]amino}phenoxy) pyridine-2-carboxamide] | 500 to 2000 | – | –
14 | NC(=O)c1cc(Oc2cccc(Nc3cc(-c4ccc(F)cc4)nc(N)n3)c2)ccn1 [Example 74, 4-(3-{[2-amino-6-(4-fluorophenyl)pyrimidin-4-yl]amino}phenoxy) pyridine-2-carboxamide] | – | – | IC50 (greater than 2 μM): > 2000 nM
15 | N#Cc1cc(Oc2ccc(Nc3cc(-c4ccc(F)cc4)nc(N)n3)cc2)ccn1 [Example 75, 4-(4-{[2-amino-6-(4-fluorophenyl)pyrimidin-4-yl]amino}phenoxy) pyridine-2-carbonitrile] | 500 to 2000 | – | –
16 | CNC(=O)c1cc(Oc2cccc(Nc3cc(-c4cccc(OC)c4)nc(N)n3)c2)ccn1 [Example 76, 4-(3-{[2-amino-6-(3-methoxyphenyl)pyrimidin-4-yl]amino}phenoxy)-N-methylpyridine-2-carboxamide] | – | ≤ 500 | –
17 | CNC(=O)c1cc(Oc2cccc(Nc3cc(-c4ccc(OC)cc4)nc(N)n3)c2)ccn1 [Example 77, 4-(3-{[2-amino-6-(4-methoxyphenyl)pyrimidin-4-yl]amino}phenoxy)-N-methylpyridine-2-carboxamide] | – | – | IC50 (greater than 2 μM): > 2000 nM
18 | Nc1nc(Nc2ccc(Oc3ccnc(C(=O)NC4CN5CCC4CC5)c3)cc2)cc(-c2ccccc2)n1 (stereo not shown) [Example 79, 4-{4-[(2-amino-6-phenylpyrimidin-4-yl)amino]phenoxy}-N-1-azabicyclo[2.2.2]oct-3-ylpyridine-2-carboxamide trifluoroacetate] | 500 to 2000 | – | –
19 | Nc1nc(Nc2ccc(Oc3ccnc(C(=O)NCC(O)CO)c3)cc2)cc(-c2ccccc2)n1 (stereo not shown) [Example 80, 4-{4-[(2-amino-6-phenylpyrimidin-4-yl)amino]phenoxy}-N-(2,3-dihydroxypropyl)pyridine-2-carboxamide] | – | ≤ 500 | –
20 | CCCCOc1cc(Oc2ccc(Nc3cc(-c4ccccc4)nc(N)n3)cc2)ccn1 [Example 83, N4*-{4-[(2-butoxypyridin-4-yl)oxy]phenyl}-6-phenylpyrimidine-2,4-diamine] | – | – | IC50 (greater than 2 μM): > 2000 nM

Row | Compound | IC50 [1] [nM] | IC50 (less than or equal to 500 nM) [nM] | also measured
21 | COCCOc1cc(Oc2ccc(Nc3cc(-c4ccccc4)nc(N)n3)cc2)ccn1 [Example 84, N^4-(4-{[2-(2-methoxyethoxy)pyridin-4-yl]oxy}phenyl)-6-phenylpyrimidine-2,4-diamine] | – | ≤ 500 | –
22 | CN(C)CCOc1cc(Oc2ccc(Nc3cc(-c4ccccc4)nc(N)n3)cc2)ccn1 [Example 85, N^4-[4-({2-[2-(dimethylamino)ethoxy]pyridin-4-yl}oxy)phenyl]-6-phenylpyrimidine-2,4-diamine] | 500 to 2000 | – | –
23 | CC(=O)c1ccc(Oc2ccc(Nc3cc(-c4ccccc4)nc(N)n3)cn2)cc1 [Example 87, 1-[4-({5-[(2-amino-6-phenylpyrimidin-4-yl)amino]pyridin-2-yl}oxy)phenyl]ethanone] | – | – | IC50 (greater than 2 μM): > 2000 nM
24 | Nc1ccc(Cc2ccc(Nc3cc(-c4ccccc4)nc(N)n3)cc2)cc1 [Example 88, N^4*-[4-(4-aminobenzyl)phenyl]-6-phenylpyrimidine-2,4-diamine] | – | ≤ 500 | –
25 | Cc1ccc(Cc2ccc(Nc3cc(-c4ccccc4)nc(N)n3)cc2)cc1 [Example 89, N^4-[4-(4-methylbenzyl)phenyl]-6-phenylpyrimidine-2,4-diamine] | 500 to 2000 | – | –
26 | COc1ccc(Cc2ccc(Nc3cc(-c4ccccc4)nc(N)n3)cc2)cc1 [Example 90, N^4-[4-(4-methoxybenzyl)phenyl]-6-phenylpyrimidine-2,4-diamine] | 500 to 2000 | – | –
27 | Nc1nc(Nc2ccc(Cc3ccc(F)cc3)cc2)cc(-c2ccccc2)n1 [Example 91, N^4-[4-(4-fluorobenzyl)phenyl]-6-phenylpyrimidine-2,4-diamine] | 500 to 2000 | – | –
28 | CN(C)C(=O)NCc1cc(Oc2ccc(Nc3cc(-c4ccccc4)nc(N)n3)cc2)ccn1 [Example 99, N′-[(4-{4-[(2-amino-6-phenylpyrimidin-4-yl)amino]phenoxy}pyridin-2-yl)methyl]-N,N-dimethylurea] | – | ≤ 500 | –
29 | Nc1nc(Nc2ccc(Oc3ccnc(CNC(=O)N4CCOCC4)c3)cc2)cc(-c2ccccc2)n1 [Example 100, N-[(4-{4-[(2-amino-6-phenylpyrimidin-4-yl)amino]phenoxy}pyridin-2-yl)methyl]morpholine-4-carboxamide] | 500 to 2000 | – | –
30 | Nc1nc(Nc2ccc(Oc3cc(N4CCOCC4)ccn3)cc2)cc(-c2ccccc2)n1 [Example 105, N4*-{4-[(4-morpholin-4-ylpyridin-2-yl)oxy]phenyl}-6-phenylpyrimidine-2,4-diamine] | 500 to 2000 | – | –
31 | Nc1nc(Nc2ccc(Oc3cc(N4CCCCC4)ccn3)cc2)cc(-c2ccccc2)n1 [Example 106, 6-phenyl-N4*-{4-[(4-piperidin-1-ylpyridin-2-yl)oxy]phenyl}pyrimidine-2,4-diamine] | – | – | IC50 (greater than 2 μM): > 2000 nM
32 | CN1CCN(c2ccnc(Oc3ccc(Nc4cc(-c5ccccc5)nc(N)n4)cc3)c2)CC1 [Example 107, N4*-(4-{[4-(4-methylpiperazin-1-yl)pyridin-2-yl]oxy}phenyl)-6-phenylpyrimidine-2,4-diamine] | 500 to 2000 | – | –
33 | Nc1nc(Nc2ccc(Oc3cc(N(CCO)CCO)ccn3)cc2)cc(-c2ccccc2)n1 [Example 108, 2,2′-[(2-{4-[(2-amino-6-phenylpyrimidin-4-yl)amino]phenoxy}pyridin-4-yl)imino]diethanol] | – | – | IC50 (greater than 2 μM): > 2000 nM
34 | COCCN(CCOC)c1ccnc(Oc2ccc(Nc3cc(-c4ccccc4)nc(N)n3)cc2)c1 [Example 109, N4*-[4-({4-[bis(2-methoxyethyl)amino]pyridin-2-yl}oxy)phenyl]-6-phenylpyrimidine-2,4-diamine] | 500 to 2000 | – | –
35 | CCC(CC)NCc1cc(Oc2ccc(Nc3cc(-c4ccccc4)nc(N)n3)cc2)ccn1 [Example 110, N4*-{4-[(2-{[(1-ethylpropyl)amino]methyl}pyridin-4-yl)oxy]phenyl}-6-phenylpyrimidine-2,4-diamine] | – | – | IC50 (greater than 2 μM): > 2000 nM
36 | Nc1nc(Nc2ccc(Oc3ccnc(CNC4CCCCC4)c3)cc2)cc(-c2ccccc2)n1 [Example 111, N4*-[4-({2-[(cyclohexylamino)methyl]pyridin-4-yl}oxy)phenyl]-6-phenylpyrimidine-2,4-diamine] | – | – | IC50 (greater than 2 μM): > 2000 nM
37 | Nc1nc(Nc2ccc(Oc3ccnc(C(F)(F)F)c3)cc2)cc(-c2ccc(Cl)c(Cl)c2)n1 [Example 112, 6-(3,4-dichlorophenyl)-N4*-(4-{[2-(trifluoromethyl)pyridin-4-yl]oxy}phenyl)pyrimidine-2,4-diamine] | 500 to 2000 | – | –
38 | Nc1nc(Nc2cccc(Oc3ccnc(Cl)c3)c2)cc(-c2ccccc2)n1 [Example 113, N4*-{3-[(2-chloropyridin-4-yl)oxy]phenyl}-6-phenylpyrimidine-2,4-diamine] | – | ≤ 500 | –
39 | Nc1nc(Nc2ccc(Oc3ccnc(Cl)c3)cc2)cc(-c2ccc(F)cc2)n1 [Example 114, N4*-{4-[(2-chloropyridin-4-yl)oxy]phenyl}-6-(4-fluorophenyl)pyrimidine-2,4-diamine] | – | ≤ 500 | –
40 | Nc1nc(Nc2ccc(Oc3ccnc(Cl)c3)cc2)cc(-c2cccc([N+](=O)[O-])c2)n1 [Example 115, N4*-{4-[(2-chloropyridin-4-yl)oxy]phenyl}-6-(3-nitrophenyl)pyrimidine-2,4-diamine] | 500 to 2000 | – | –
